Assay results reported in patent publication US10550091B2, “1,4,5-substituted 1,2,3-triazole analogues as antagonists of the pregnane X receptor” (ST. JUDE CHILDREN'S RESEARCH HOSPITAL, priority 2016, dated 2020).

What was measured:
HepG2 cells = test: HepG2 cytotoxicity assay (CellTiter Glo); type: cell-based; details: Homo sapiens, HepG2, 72 h, read-out: IC50 (cyto)
Description: The luminescence signal was detected using an Envision plate reader (PerkinElmer Life Sciences).

[1] = target: human vitamin D receptor (hVDR) (Homo sapiens, UniProt P11473); test: human vitamin D receptor (hVDR) transactivation assay; type: cell-based
Description: Cells were maintained by following manufacturer's instruction. Briefly, VDR cells were maintained in matrigel-coated tissue culture flasks in DMEM supplemented with 10% dialyzed FBS, 0.1 mM non-essential amino acids, 1 mM sodium pyruvate, 25 mM HEPES, 80 μg/ml of hygromycin B, 80 μg/ml of zeocin, 100 units/ml penicillin and 100 μg/ml streptomycin. […] Assay medium containing DMSO without cells serves as background control.

[2] = target: human glucocorticoid receptor (hGR) (Homo sapiens, UniProt P04150); test: human glucocorticoid receptor (hGR) transactivation assay; type: cell-based; details: Anta = compound exhibited antagonism; read-out: GR (Anta)
[3] = target: human retinoid X receptor alpha (hRXRα) (Homo sapiens, UniProt P19793); test: human retinoid X receptor alpha (hRXRα) transactivation assay; type: cell-based; details: Anta = compound exhibited antagonism; read-out: RXRα (Anta)
[4] = target: human retinoid X receptor beta (hRXRβ) (Homo sapiens, UniProt P28702); test: human retinoid X receptor beta (hRXRβ) transactivation assay; type: cell-based; details: Anta = compound exhibited antagonism; read-out: RXRβ (Anta)
Description: Cells were maintained by following manufacturer's instruction. Briefly, RXRβ cells were maintained in DMEM supplemented with 10% dialyzed FBS, 0.1 mM non-essential amino acids, 25 mM HEPES, 100 μg/ml of hygromycin B, 100 μg/ml of zeocin, 100 units/ml penicillin and 100 μg/ml streptomycin.

[5] = target: human Farnesoid X receptor (hFXR) (Homo sapiens, UniProt Q96RI1); test: human Farnesoid X receptor (hFXR) transactivation assay; type: cell-based; details: Anta = compound exhibited antagonism; read-out: FXR (Anta)
Description: Cells were maintained by following manufacturer's instruction. Briefly, FXR cells were maintained in DMEM supplemented with 10% dialyzed FBS, 0.1 mM non-essential amino acids, 25 mM HEPES, 100 μg/ml of hygromycin B, 100 μg/ml of zeocin, 100 units/ml penicillin and 100 μg/ml streptomycin.

[6] = target: human Liver X receptor alpha (hLXRα) (Homo sapiens, UniProt Q13133); test: human Liver X receptor alpha (hLXRα) transactivation assay; type: cell-based; details: Anta = compound exhibited antagonism; read-out: LXRα (Anta)
[7] = target: human Liver X receptor beta (hLXRβ) (Homo sapiens, UniProt P55055); test: human Liver X receptor beta (hLXRβ) transactivation assay; type: cell-based; details: Anta = compound exhibited antagonism; read-out: LXRβ (Anta)
[8] = target: human peroxisome proliferator-activated receptor gamma (PPARγ) (Homo sapiens, UniProt P37231); test: human peroxisome proliferator-activated receptor gamma (PPARγ) transactivation assay; type: cell-based; details: Anta = compound exhibited antagonism; read-out: PPARγ (Anta)
Description: Cells were maintained by following manufacturer's instruction. Briefly, PPARγ cells were maintained in matrigel-coated tissue culture flasks in DMEM supplemented with 10% dialyzed FBS, 0.1 mM non-essential amino acids, 1 mM sodium pyruvate, 25 mM HEPES, 100 μg/ml of hygromycin B, 500 μg/ml of geneticin, 100 units/ml penicillin and 100 μg/ml streptomycin. […] Assay medium containing DMSO without cells serves as background control.

hPXR [9] = target: hPXR (Homo sapiens (Human), UniProt O75469); test: hPXR transactivation assays (agonistic and antagonistic), HepG2 cells with CYP3A4-luciferase reporter; details: read-out: IC50 (antag); antagonistic assay, combined with 5 μM rifampicin, 24 h; NA = not active
Description: The hPXR transactivation assays (PXR agonistic and antagonistic assays) were performed in the HepG2 cells stably expressing FLAG-hPXR and CYP3A4-luciferase reporter. […] The luminescence signal was detected using an Envision plate reader (PerkinElmer Life Sciences).

[10] = test system: primary human hepatocytes (PHHs); test: midazolam metabolism in primary human hepatocytes after hPXR agonist pretreatment; type: cell-based; details: PHHs pretreated 72 hr with DMSO, 1.6 μM RIF, 0.5 or 5 μM PTX, with 10 μM test compound; then 3.3 μM MDZ 4 h
Description: Midazolam and 1-OH midazolam were from BD Gentest. Midazolam-D4 maleate (internal standard, IS) was from Cerilliant; Paclitaxel and 3′-p-Hydroxypaclitaxel were from Sigma; and 6α-hydroxy Paclitaxel was from Cayman Chemical. 100 μl of reaction medium at each different time point was collected and 200 μl of acetonitrile containing IS was added. This solution was then vigorously mixed for 10 min and centrifuged at 10,000 rpm for 10 min. Calibration and quality control samples were prepared. 5 μl of the samples was injected onto a Waters Acquity UPLC BEH C18 column (2.1×50 mm, 1.7 μm), using a Waters Acquity UPLC system. Chromatographic separation was performed by gradient elution at a constant flow rate of 1 mL/min for 15 min. The gradient consisted of 0.1% formic acid water (mobile phase A) and methanol (mobile phase B). […] Nitrogen was applied as curtain, collision and drying gas at 60 psi. Declustering potentials, entrance potential and collision energy was as follows: 120 V, 12 V and 35 V for MDZ; 70 V, 12 V and 30 V for 1-OH MDZ; and 120 V, 12 V and 37 V for IS.

[11] = test system: primary human hepatocytes (PHHs); test: paclitaxel metabolism in primary human hepatocytes; type: cell-based; details: 1 μM PTX with 10 μM test compound, 24 and 48 hr
Description: FIGS. 1A-1D show representative data for a representative disclosed compound showing that the tested compound modulates the activity of an hPXR agonist in primary human hepatocytes (“PHHs”). […] PHHs were pretreated with DMSO (0.1%), 1.6 μM of rifampicin (RIF), 0.5 μM of paclitaxel (PTX) or 5 μM of PTX, respectively, in the absence and presence of 10 μM of the test compound. After 72 hr, PHHs then received 3.3 μM of midazolam (MDZ) treatment for 4 h. The concentrations of 1′-OH MDZ (MDZ metabolite) in the media of each pretreatment condition were determined using LC/MS/MS as described in the Examples. […] PHHs were also treated with 1 μM of PTX in the absence and presence of 10 μM of the test compound, and then the concentrations of major PTX metabolites, 3-OH PTX (by CYP3A4) and 6α-OH PTX (by CYP2C8), were determined using LC/MS/MS at 24 hr and 48 hr of treatment, respectively. The concentrations of 3-OH PTX and 6α-OH PTX are shown in FIGS. 1B and 1C, respectively.
Midazolam and 1-OH midazolam were from BD Gentest. Midazolam-D4 maleate (internal standard, IS) was from Cerilliant; Paclitaxel and 3′-p-Hydroxypaclitaxel were from Sigma; and 6α-hydroxy Paclitaxel was from Cayman Chemical. 100 μl of reaction medium at each different time point was collected and 200 μl of acetonitrile containing IS was added. […] Calibration and quality control samples were prepared. […]

[12] = test system: LS 180 cells stably overexpressed hPXR; test: sensitization of colon cancer cells to anti-cancer drugs (viability); type: cell-based, human; details: absence vs presence of 10 μM test compound, 96 h
Description: FIGS. 2A-2D show representative data for a representative disclosed compound showing that the tested compound sensitizes colon cancer cells to representative anti-cancer drugs. […] LS 180 cells stably overexpressed hPXR were treated with serial dilutions of paclitaxel (PTX; see FIG. 2A), docetaxel (TXT; see FIG. 2B), vinblastine (VBL; see FIG. 2C), or vincristine (VCR; see FIG. 2D) in the absence and presence of 10 μM of the test compound as indicated for 96 h. Values of the viability of compound-treated cells were expressed as a percentage of that of DMSO-treated cells, and drug concentration is expressed in a log scale. Data at each point represents mean±SEM from quadruplicate measurements.

hPXR [13] = test: liver CYP3A expression in hPXR-tg mice; type: in vivo, mouse; details: RIF 10 mg/kg plus test compound 200 mg/kg, 72 h
Description: Briefly, mouse liver Cyp3a11 mRNA was analyzed by real-time PCR in hPXR-tg mice treated with vehicle control (Vehicle), RIF (10 mg/kg) or RIF (10 mg/kg) plus test compound (200 mg/kg) for 72 h. Each data point represents the level of Cyp3a11 mRNA (FIG. 3A) or protein (FIG. 3B) in an individual mouse; lines indicate the mean value for 3-7 mice per group.
hPXR-tg mice were generated previously (Xie et al., 2000). Five mice in each group were dosed orally with vehicle control or 10 mg/kg RIF, every 24 h for three days. Eight hours after the last dose, the animals were euthanized by C02 and liver tissues were harvested. A piece of each liver was preserved in RNAlater solution (Invitrogen) at 4° C. for mRNA isolation. The remaining tissue was instantly frozen in liquid nitrogen and stored at −80° C. for total protein extraction. […]

CYP3A4 promoter reporter = CYP3A4 promoter reporter activity in hPXR-CYP3A4-luc reporter mice (bioluminescence imaging); type: in vivo, mouse; details: RIF 10 mg/kg plus test compound 150 mg/kg every 24 h for 2 days; imaging 10 h after last treatment
Description: Individual mouse received 3 rounds of sequential treatment of vehicle control (Vehicle), RIF (10 mg/kg) and RIF (10 mg/kg) plus the test compound (150 mg/kg) every 24 h for 2 days, respectively, with a washout period of 72-hour between two rounds of treatment. The luciferase activity in these reporter mice was recorded by bioluminescence imaging 10 h after the last treatment of each round, and the induction of CYP3A4 promoter reporter activity was calculated as described in Examples. Each data point represents the induction of CYP3A4 promoter reporter activity by the treatment in an individual mouse, and dos lines indicate the CYP3A4 promoter reporter activity change in individual mouse after following round of treatment. p values are indicated between the two treatment compared by paired t test.
10 hours after the last treatment of each round, the mice were imaged as described above. Uniform regions of interest were drawn around the liver, and total photon flux was analyzed with Living Image 3.2 software (Xenogen). The induction of CYP3A4-luc reporter activity was calculated using the imaging from the same mouse as follows: induction rate=total photon flux (after treatment)/total photon flux (before treatment).

hPXR-tg mice = test: loss of righting reflex (LORR) assay in hPXR transgenic mice; type: in vivo, mouse; details: RIF 10 mg/kg plus test compound 200 mg/kg every 24 h for three days
Description: Loss of righting reflex (LORR) duration was recorded as described in Examples to measure metabolism of the anesthetic ([…]) in hPXR-tg, mice before and after treatment with vehicle, RIF, and RIF plus the test compound as indicated. Each data point represents LORR duration in an individual mouse; lines indicate LORR duration change in individual mouse before and after treatment. P values indicate comparison of values by paired t test.
Mice were intraperitoneally injected with 250 mg/kg of 2,2,2-tribromoethanol, which is metabolically cleared only via mouse CYP3A11. After the mice lost their righting reflex, they were placed on their backs under a heat lamp. The duration of LORR was measured as the time from the start of LORR to recovery (i.e., when mice could right themselves after being placed on their backs twice within 1 min). A baseline LORR duration was established for each mouse at the administered dose of 2,2,2-tribromoethanol. […] The paired Student's t-test was used to compare LORR duration between baseline and after treatment. A P value <0.05 was considered to indicate a significant difference between compared groups.

human retinoid X receptor alpha (hRXRα), sequence (P19793 whole entry, looked up): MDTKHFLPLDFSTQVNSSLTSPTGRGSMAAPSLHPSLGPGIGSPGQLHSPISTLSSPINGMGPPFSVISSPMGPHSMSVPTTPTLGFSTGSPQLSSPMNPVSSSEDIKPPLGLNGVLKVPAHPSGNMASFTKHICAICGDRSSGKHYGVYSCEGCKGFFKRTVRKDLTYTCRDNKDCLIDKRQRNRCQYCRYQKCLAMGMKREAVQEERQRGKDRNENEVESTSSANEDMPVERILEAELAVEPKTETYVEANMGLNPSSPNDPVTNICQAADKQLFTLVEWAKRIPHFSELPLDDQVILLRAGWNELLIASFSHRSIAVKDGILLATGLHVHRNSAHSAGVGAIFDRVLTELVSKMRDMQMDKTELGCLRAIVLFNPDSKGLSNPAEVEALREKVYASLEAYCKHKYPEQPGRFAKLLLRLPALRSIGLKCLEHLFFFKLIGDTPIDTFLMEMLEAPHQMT
human glucocorticoid receptor (hGR), sequence (P04150 whole entry, looked up): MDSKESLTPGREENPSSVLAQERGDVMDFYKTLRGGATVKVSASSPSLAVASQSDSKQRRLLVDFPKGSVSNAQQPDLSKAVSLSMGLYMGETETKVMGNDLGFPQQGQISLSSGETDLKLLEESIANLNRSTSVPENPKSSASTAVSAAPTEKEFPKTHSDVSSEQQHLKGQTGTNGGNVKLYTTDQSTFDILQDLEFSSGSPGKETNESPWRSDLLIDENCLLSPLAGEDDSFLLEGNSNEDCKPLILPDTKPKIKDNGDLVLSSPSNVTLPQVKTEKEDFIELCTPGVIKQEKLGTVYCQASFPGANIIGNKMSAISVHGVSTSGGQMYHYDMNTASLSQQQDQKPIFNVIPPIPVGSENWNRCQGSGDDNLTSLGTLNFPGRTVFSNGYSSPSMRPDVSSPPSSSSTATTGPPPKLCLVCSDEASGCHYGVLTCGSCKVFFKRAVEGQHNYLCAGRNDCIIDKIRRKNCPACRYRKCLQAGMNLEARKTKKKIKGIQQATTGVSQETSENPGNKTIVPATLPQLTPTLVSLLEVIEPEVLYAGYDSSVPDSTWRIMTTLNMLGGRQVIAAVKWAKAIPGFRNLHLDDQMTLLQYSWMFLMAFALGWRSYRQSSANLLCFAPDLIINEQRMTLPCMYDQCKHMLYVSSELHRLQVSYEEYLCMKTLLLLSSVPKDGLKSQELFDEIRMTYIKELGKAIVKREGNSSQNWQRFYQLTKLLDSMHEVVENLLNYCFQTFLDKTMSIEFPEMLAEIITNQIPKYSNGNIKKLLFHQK
human Liver X receptor beta (hLXRβ), sequence (P55055 whole entry, looked up): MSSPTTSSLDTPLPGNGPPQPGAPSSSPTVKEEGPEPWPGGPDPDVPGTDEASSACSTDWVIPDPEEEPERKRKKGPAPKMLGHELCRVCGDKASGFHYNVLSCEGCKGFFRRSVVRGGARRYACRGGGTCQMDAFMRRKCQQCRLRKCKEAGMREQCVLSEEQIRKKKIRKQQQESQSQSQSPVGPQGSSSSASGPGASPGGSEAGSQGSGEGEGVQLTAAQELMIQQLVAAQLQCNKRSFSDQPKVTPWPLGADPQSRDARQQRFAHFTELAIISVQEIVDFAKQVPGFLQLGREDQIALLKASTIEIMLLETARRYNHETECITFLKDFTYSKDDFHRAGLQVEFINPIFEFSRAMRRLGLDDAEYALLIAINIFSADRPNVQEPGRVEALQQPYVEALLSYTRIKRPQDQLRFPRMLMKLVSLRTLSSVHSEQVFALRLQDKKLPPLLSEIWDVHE
human Liver X receptor alpha (hLXRα), sequence (Q13133 whole entry, looked up): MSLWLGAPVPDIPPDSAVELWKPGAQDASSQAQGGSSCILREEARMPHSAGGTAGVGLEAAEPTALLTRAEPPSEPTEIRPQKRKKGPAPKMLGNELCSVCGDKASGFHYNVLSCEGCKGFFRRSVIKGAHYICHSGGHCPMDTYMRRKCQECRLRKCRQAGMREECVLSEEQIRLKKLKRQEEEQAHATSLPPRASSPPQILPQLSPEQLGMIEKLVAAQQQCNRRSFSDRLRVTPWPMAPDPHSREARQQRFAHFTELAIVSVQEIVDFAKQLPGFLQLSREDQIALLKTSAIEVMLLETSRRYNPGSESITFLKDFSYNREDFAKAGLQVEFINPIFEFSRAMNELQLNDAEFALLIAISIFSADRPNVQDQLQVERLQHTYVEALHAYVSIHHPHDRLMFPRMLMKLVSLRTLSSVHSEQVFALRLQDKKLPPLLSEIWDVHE
human Farnesoid X receptor (hFXR), sequence (Q96RI1 whole entry, looked up): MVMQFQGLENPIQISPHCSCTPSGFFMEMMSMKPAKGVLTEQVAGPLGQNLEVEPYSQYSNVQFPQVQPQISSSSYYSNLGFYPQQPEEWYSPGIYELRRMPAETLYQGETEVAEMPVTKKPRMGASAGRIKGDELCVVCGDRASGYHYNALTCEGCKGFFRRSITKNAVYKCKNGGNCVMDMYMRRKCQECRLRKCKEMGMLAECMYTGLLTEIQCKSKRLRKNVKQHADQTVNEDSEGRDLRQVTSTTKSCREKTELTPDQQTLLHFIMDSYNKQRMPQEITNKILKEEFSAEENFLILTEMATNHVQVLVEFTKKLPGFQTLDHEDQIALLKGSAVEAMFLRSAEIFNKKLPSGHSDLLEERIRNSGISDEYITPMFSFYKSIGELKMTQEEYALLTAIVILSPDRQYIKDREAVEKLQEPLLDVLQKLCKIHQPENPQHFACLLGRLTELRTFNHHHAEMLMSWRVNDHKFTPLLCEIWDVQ
hPXR (Homo sapiens (Human), UniProt O75469), sequence (O75469 whole entry): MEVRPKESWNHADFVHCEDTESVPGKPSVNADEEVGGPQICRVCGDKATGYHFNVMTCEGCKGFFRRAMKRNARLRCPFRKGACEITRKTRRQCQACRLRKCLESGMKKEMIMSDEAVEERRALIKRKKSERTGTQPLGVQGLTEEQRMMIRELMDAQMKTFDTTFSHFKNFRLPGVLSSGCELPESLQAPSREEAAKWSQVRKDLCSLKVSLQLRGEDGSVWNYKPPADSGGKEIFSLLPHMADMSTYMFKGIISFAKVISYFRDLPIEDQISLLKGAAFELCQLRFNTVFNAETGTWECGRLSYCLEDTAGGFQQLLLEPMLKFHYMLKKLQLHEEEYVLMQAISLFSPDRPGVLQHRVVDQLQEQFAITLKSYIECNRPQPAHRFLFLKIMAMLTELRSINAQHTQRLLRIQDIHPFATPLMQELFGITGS
human vitamin D receptor (hVDR), sequence (P11473 whole entry, looked up): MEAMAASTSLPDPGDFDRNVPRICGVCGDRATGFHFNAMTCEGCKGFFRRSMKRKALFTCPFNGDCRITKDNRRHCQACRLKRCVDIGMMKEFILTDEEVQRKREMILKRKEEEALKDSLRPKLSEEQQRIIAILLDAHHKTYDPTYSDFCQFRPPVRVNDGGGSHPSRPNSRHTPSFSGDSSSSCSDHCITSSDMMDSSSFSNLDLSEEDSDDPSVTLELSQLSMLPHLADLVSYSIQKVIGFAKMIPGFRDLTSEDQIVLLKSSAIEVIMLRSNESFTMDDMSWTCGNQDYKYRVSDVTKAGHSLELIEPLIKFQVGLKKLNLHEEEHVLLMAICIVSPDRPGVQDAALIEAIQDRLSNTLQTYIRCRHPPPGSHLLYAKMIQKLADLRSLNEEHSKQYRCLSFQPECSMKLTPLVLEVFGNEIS
human peroxisome proliferator-activated receptor gamma (PPARγ), sequence (P37231 whole entry, looked up): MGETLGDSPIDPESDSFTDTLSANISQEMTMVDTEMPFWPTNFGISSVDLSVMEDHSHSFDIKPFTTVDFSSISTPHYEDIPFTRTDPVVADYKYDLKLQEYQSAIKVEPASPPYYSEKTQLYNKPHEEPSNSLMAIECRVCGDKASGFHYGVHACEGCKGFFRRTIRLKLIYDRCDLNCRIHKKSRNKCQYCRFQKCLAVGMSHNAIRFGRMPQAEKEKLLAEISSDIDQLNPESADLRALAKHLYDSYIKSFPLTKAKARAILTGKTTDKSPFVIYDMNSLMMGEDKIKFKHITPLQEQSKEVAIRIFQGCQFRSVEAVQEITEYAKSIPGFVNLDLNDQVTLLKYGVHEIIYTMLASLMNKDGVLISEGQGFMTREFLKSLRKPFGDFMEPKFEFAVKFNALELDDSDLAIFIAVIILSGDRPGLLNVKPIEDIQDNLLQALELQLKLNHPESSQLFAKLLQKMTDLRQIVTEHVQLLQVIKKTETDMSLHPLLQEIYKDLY
human retinoid X receptor beta (hRXRβ), sequence (P28702 whole entry, looked up): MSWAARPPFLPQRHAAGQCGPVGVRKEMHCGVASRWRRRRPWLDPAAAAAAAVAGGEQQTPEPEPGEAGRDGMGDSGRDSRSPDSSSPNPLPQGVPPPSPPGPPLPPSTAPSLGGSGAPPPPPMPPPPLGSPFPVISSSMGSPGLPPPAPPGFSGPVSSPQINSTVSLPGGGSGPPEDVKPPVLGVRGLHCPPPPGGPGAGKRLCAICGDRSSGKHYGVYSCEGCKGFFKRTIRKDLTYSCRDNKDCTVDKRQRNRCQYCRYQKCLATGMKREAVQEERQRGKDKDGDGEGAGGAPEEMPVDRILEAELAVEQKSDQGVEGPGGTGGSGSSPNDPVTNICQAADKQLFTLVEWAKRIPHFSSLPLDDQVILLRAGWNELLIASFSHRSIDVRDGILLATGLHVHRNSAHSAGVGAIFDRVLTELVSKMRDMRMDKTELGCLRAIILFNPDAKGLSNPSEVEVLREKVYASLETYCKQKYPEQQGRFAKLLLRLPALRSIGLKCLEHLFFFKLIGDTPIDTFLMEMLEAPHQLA

SMILES | IC50 (HepG2 cells) [µM] | IC50 [1] [µM] | IC50 [2] [µM] | IC50 [3] [µM] | IC50 [4] [µM] | IC50 [5] [µM] | IC50 [6] [µM] | IC50 [7] [µM] | IC50 [8] [µM] | IC50 (hPXR [9]) [µM] | metabolism of MDZ (1′-OH MDZ in the media) [10] | metabolism of PTX to 3-OH PTX (by CYP3A4) [11] | metabolism of PTX to 6α-OH PTX (by CYP2C8) [11] | apparent IC50 for PTX, TXT, VBL, or VCR [12] | hPXR-mediated increase in CYP3A expression (liver Cyp3a11 mRNA, CYP3A protein) (hPXR [13]) | RIF-induced expression of the reporter under the control of the CYP3A4 promoter (CYP3A4 promoter reporter) | RIF-induced metabolism of the anesthetic, by LORR duration (hPXR-tg mice)
COc1ccc(O)c(-n2nnc(S(=O)(=O)c3ccc(C(C)(C)C)cc3)c2C)c1 [LC-86, 2-(4-((4-(tert-butyl)phenyl)sulfonyl)-5-methyl-1H-1,2,3-triazol-1-yl)-4-methoxyphenol] | 26.1 | 24.2 | 21.4 | 20.6 | 17.9 | 21.9 | 29.8 | 18.9 | 11.8 | 0.18 |  |  |  |  |  |  | 
COc1ccc(OC)c(-n2nnc(S(=O)(=O)c3ccc(C(C)(C)C)cc3)c2C)c1 [4-((4-(tert-butyl)phenyl)sulfonyl)-1-(2,5-dimethoxyphenyl)-5-methyl-1H-1,2,3-triazole] |  |  |  |  |  |  |  |  |  |  | essentially blocked | effectively blocked | effectively blocked | significantly higher in the absence of the test compound | inhibits the hPXR-mediated increase in CYP3A expression | significantly reduced | significantly inhibited
